Measurements: patent US20110040086A1, “Novel Beta-Lactam Antibiotics, Methods for Their Production, and Their Use” (DRITTE PATENTPORTFOLIO BETEILIGUNGSGESELLSCHAFT MB, priority 2007, published 2011)

Assays:
[1] = system: Enterococcus faecalis 769; assay: agar diffusion test (Test System II, multi-resistant germs); format: cell-based; design: key: r = resistant (no detectable zone of inhibition)
Summary of the method: (§1)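 Semi-synthetic compounds were tested by disc diffusion at three loadings, 10, 50 and 100 μg per disc. Bacteria at McFarland 0.5 were spread on Müller-Hinton agar II; after 18-20 h at 37 °C the inhibition zone diameter was taken.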

[2] = system: Staphylococcus aureus 315; assay: as above; format: cell-based; design: key: r = resistant (no detectable zone of inhibition)
Summary of the method: as §1

S. aureus 36881 = assay: as above; format: cell-based, Staphylococcus aureus; design: key: r = resistant (no detectable zone of inhibition)
Summary of the method: as §1

S. aureus 520 = assay: as above; format: cell-based, Staphylococcus aureus; design: key: r = resistant (no detectable zone of inhibition)
Summary of the method: as §1

[3] = system: S. aureus North Germany strain; assay: as above; format: cell-based, Staphylococcus aureus; design: key: r = resistant (no detectable zone of inhibition)
Summary of the method: as §1

S. aureus 38418 = assay: as above; format: cell-based, Staphylococcus aureus
Summary of the method: as §1

S. aureus ATCC 6538 = assay: as above; format: cell-based, Staphylococcus aureus
Summary of the method: as §1

S. epidermidis 847 = assay: as above; format: cell-based, Staphylococcus epidermidis; design: key: r = resistant (no detectable zone of inhibition)
Summary of the method: as §1

S. epidermidis 125 = assay: as above; format: cell-based, Staphylococcus epidermidis
Summary of the method: as §1

[4] = system: Staphylococcus aureus ATCC 6538; assay: mouse infected with Staphylococcus aureus infection model (survival); format: in vivo, BALB/c mice
Procedure: Method for Effectiveness In Vivo with the Mouse Infected with Staphylococcus aureus Model
On Day 0, at least 3 BALB/c mice per test substance (Table 8) or controls are pretreated with cyclophosphamide (250 mg/kg) in 250 μl PBS inta peritoneal (i.p.).
On Day 2, the animals again received 100 mg/kg i.p.
On Day 2, a colony of the test germ is transferred from a growing agar plate (Müller-Hinton-Agar, Beckton Dickinson) into a flask with 10 ml CASO broth (CASO-B., Soyabean peptone-Casein peptone broth, SIFIN, 30 g/l) and is cultivated overnight at 37° C. and a shaking frequency of 250 rpm.
On Day 3, the pre-culture (Vk) is diluted 1:50 with CASO-B and further cultivated ca. 2 hours until an extinction in the medium of 0.6 at a wavelength of 550 nm is reached. Then, it is grown 1× with PBS at room temperature and set again to an extinction of 0.6.
At least 3 animals for a test substance or controls are infected with 10 μl/g body weight grown germs of a bacteria suspension with the extinction 0.6 (ca. 10^10-10^12 CFU, Colony forming units) i.p.
After 30 minutes, antibiotic solution is injected into the mice in a volume of 200 μl PBS with 3% DMSO i.p. 6 hours later, the second antibiotic injection is performed at the same concentration. […]

[5] = logP value by HPLC according to Donovan et al.; conditions: HPLC, methanol/0.1% phosphoric acid pH 2
Procedure: • Operating temperature 18-24° C. • Flow 1.5 mL/min • Linear gradient (methanol/0.1% phosphoric acid pH 2) from 10% to 100% methanol in 9.4 min, equilibrium time between 2 runs 6 min
ca. 0.5 mg of analyte is added to 0.5 ml of a standard solution (440 mg methyl phenyl sulfonate and 380 μl toluene in 150 mL methanol). 2 μl of this sample solution is injected.
Because the distribution coefficients of the two standards running in each test are known, the distribution coefficient of the analytes can be determined from the relationships of the analyte/standard retention times.

[6] = system: Staphylococcus haemolyticus 535; assay: agar diffusion test (Test System II, multi-resistant germs); format: cell-based; design: key: r = resistant (no detectable zone of inhibition)
Summary of the method: as §1

[7] = Quantity n 0.02 mol (first line per ingredient)
[8] = Quantity n 0.1 mol (second line per ingredient)
[9] = Quantity n 0.2 mol (third line per ingredient)

O=C(O)C1=C(Cl)CC2C(=O)C(NC(=O)C(NC3=C(C(=O)NCCO)C(=O)C=CC3=O)c3ccccc3)C2N1 (stereo not shown) [1m, 3-chlorine-7-{2-[2-(2-hydroxyethylcarbamoyl)-3,6-dioxocyclohexa-1,4-dienylamino]-2-phenyl-acetylamino}-8-oxo-5-azabicyclo[4.2.0]oct-3-ene-4-carboxylic acid]
Diameter of zone of inhibition ([1]; Quantity n 0.018): r
Diameter of zone of inhibition ([1]; Quantity n 0.092): r
Diameter of zone of inhibition ([1]; Quantity n 0.18): r
Diameter of zone of inhibition ([2]; Quantity n 0.018): r
Diameter of zone of inhibition ([2]; Quantity n 0.092): r
Diameter of zone of inhibition ([2]; Quantity n 0.18): 8 mm
Diameter of zone of inhibition (S. aureus 36881; Quantity n 0.018): r
Diameter of zone of inhibition (S. aureus 36881; Quantity n 0.092): 16 mm
Diameter of zone of inhibition (S. aureus 36881; Quantity n 0.18): 20 mm
Diameter of zone of inhibition (S. aureus 520; Quantity n [mol] 0.018): r
Diameter of zone of inhibition (S. aureus 520; Quantity n [mol] 0.092): r
Diameter of zone of inhibition (S. aureus 520; Quantity n [mol] 0.18): 8 mm
Diameter of zone of inhibition ([3]; Quantity n 0.018): r
Diameter of zone of inhibition ([3]; Quantity n 0.092): r
Diameter of zone of inhibition ([3]; Quantity n 0.18): 12 mm
Diameter of zone of inhibition (S. aureus 38418; Quantity n [mol] 0.018): 20 mm
Diameter of zone of inhibition (S. aureus 38418; Quantity n [mol] 0.092): 30 mm
Diameter of zone of inhibition (S. aureus 38418; Quantity n [mol] 0.18): >30 mm
Diameter of zone of inhibition (S. aureus ATCC 6538; Quantity n 0.018): 22 mm
Diameter of zone of inhibition (S. aureus ATCC 6538; Quantity n 0.092): >30 mm
Diameter of zone of inhibition (S. aureus ATCC 6538; Quantity n 0.18): >30 mm
Diameter of zone of inhibition (S. epidermidis 847; Quantity n [mol] 0.018): r
Diameter of zone of inhibition (S. epidermidis 847; Quantity n [mol] 0.092): 14 mm
Diameter of zone of inhibition (S. epidermidis 847; Quantity n [mol] 0.18): 18 mm
Diameter of zone of inhibition (S. epidermidis 125; Quantity n 0.018): 20 mm
Diameter of zone of inhibition (S. epidermidis 125; Quantity n 0.092): 26 mm
Diameter of zone of inhibition (S. epidermidis 125; Quantity n 0.18): 28 mm
Survival/tested mice n/n ([4]; 2 × 0.5 mg (25 mg/kg) i.p.): 9/9
logP value [5]: 1.62

CC1=CC(NC(C(=O)NC2C(=O)N3C(C(=O)O)=C(C)CSC23)c2ccc(O)cc2)=CC(=O)C1=O (stereo not shown) [1q]
Diameter of zone of inhibition, Enterococcus faecalis 769 ([1]; Quantity n 0.02): r^1
Diameter of zone of inhibition, Enterococcus faecalis 769 ([1]; Quantity n 0.1): r
Diameter of zone of inhibition, Enterococcus faecalis 769 ([1]; Quantity n 0.2): 10 mm
Diameter of zone of inhibition, Staphylococcus aureus 315 ([2]; Quantity n 0.02 mol): r
Diameter of zone of inhibition, Staphylococcus aureus 315 ([2]; Quantity n 0.1 mol): 10 mm
Diameter of zone of inhibition, Staphylococcus aureus 315 ([2]; Quantity n 0.2 mol): 14 mm
Diameter of zone of inhibition [6, 7]: r
Diameter of zone of inhibition [6, 8]: r
Diameter of zone of inhibition [6, 9]: 10 mm
Diameter of zone of inhibition, S. aureas 36881 (S. aureus 36881; Quantity n 0.02 mol): r
Diameter of zone of inhibition, S. aureas 36881 (S. aureus 36881; Quantity n 0.1 mol): r
Diameter of zone of inhibition, S. aureas 36881 (S. aureus 36881; Quantity n 0.2 mol): 10 mm
Diameter of zone of inhibition, S. aureus 520 (S. aureus 520; Quantity n 0.02 mol): r
Diameter of zone of inhibition, S. aureus 520 (S. aureus 520; Quantity n 0.1 mol): r
Diameter of zone of inhibition, S. aureus 520 (S. aureus 520; Quantity n 0.2 mol): 10 mm
Diameter of zone of inhibition, S. aureus North German strain [3, 7]: r
Diameter of zone of inhibition, S. aureus North German strain [3, 8]: 10 mm
Diameter of zone of inhibition, S. aureus North German strain [3, 9]: 12 mm
Diameter of zone of inhibition, S. aureas 38418 (S. aureus 38418; Quantity n 0.02): 10^2 mm
Diameter of zone of inhibition, S. aureas 38418 (S. aureus 38418; Quantity n 0.1): 18 mm
Diameter of zone of inhibition, S. aureas 38418 (S. aureus 38418; Quantity n 0.2): 22 mm
Diameter of zone of inhibition, S. aureus ATCC 6538 (S. aureus ATCC 6538; [7]): 16 mm
Diameter of zone of inhibition, S. aureus ATCC 6538 (S. aureus ATCC 6538; [8]): 20 mm
Diameter of zone of inhibition, S. aureus ATCC 6538 (S. aureus ATCC 6538; [9]): 26 mm
Diameter of zone of inhibition, S. epidermidis 847 (S. epidermidis 847; Quantity n 0.02 (first line per ingredient)): r
Diameter of zone of inhibition, S. epidermidis 847 (S. epidermidis 847; Quantity n 0.1 (second line per ingredient)): 14 mm
Diameter of zone of inhibition, S. epidermidis 847 (S. epidermidis 847; Quantity n 0.2 (third line per ingredient)): 16 mm
Diameter of zone of inhibition, S. epidermidis 125 (S. epidermidis 125; [7]): 12 mm
Diameter of zone of inhibition, S. epidermidis 125 (S. epidermidis 125; [8]): 20 mm
Diameter of zone of inhibition, S. epidermidis 125 (S. epidermidis 125; [9]): 26 mm
Survival/tested mice n/n ([4]; 2 × 0.5 mg (25 mg/kg) i.p.): 3/6
Survival/tested mice n/n ([4]; 2 × 1.0 mg (50 mg/kg) i.p.): 1/3
